pIC50: −log10 of the molar value.
Each compound was assayed on SU-DHL-4 cell line (assay: SU-DHL-4 cell proliferation assay (Cell Titer-Glo viability)). Conditions: Homo sapiens; cell viability IC50 activity level, DLBCL cell line SU-DHL-4, 120 hours post-treatment; read-out: SU-DHL-4 Act.
Assay type: cell-based
In short: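 Viability read by ATP luminescence (Cell Titer-Glo) at the start and after 120 h of growth at 37°C in 5% CO2. DLBCL cells were seeded at 500 per well with compound across 0.5 nM–10 μM in 20 points, 0.1% DMSO. A four-parameter sigmoidal fit gave IC50 as 50% of DMSO control.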

Compound	pIC50
NC(=O)c1ccc(N2CCN(Cc3ccc(CNc4cccc5c4C(=O)N([C@@H]4CCC(=O)NC4=O)C5=O)cc3)CC2)nc1 [Cpd 204, (R)-6-(4-(4-((2-(2,6-dioxopiperidin-3-yl)-1,3-dioxoisoindolin-4-ylamino)methyl)benzyl)piperazin-1-yl)nicotinamide]	> 6.70
Cc1cc(CNc2cccc3c2C(=O)N(C2CCC(=O)NC2=O)C3=O)ccc1CN1CCN(c2ccc(C(N)=O)cn2)CC1 (stereo not drawn) [Cpd 205, 6-(4-(4-((2-(2,6-dioxopiperidin-3-yl)-1,3-dioxoisoindolin-4-ylamino)methyl)-2-methylbenzyl)piperazin-1-yl)nicotinamide]	> 6.70
NC(=O)c1ccc(N2CCN(Cc3ccc(CNc4cccc5c4C(=O)N([C@@H]4CCC(=O)NC4=O)C5=O)c(F)c3)CC2)nc1 [Cpd 206, (R)-6-(4-(4-((2-(2,6-dioxopiperidin-3-yl)-1,3-dioxoisoindolin-4-ylamino)methyl)-3-fluorobenzyl)piperazin-1-yl)nicotinamide]	> 6.70
NC(=O)c1ccc(N2CCN(Cc3ccc(CNc4cccc5c4C(=O)N([C@H]4CCC(=O)NC4=O)C5=O)c(F)c3)CC2)nc1 [Cpd 207, (S)-6-(4-(4-((2-(2,6-dioxopiperidin-3-yl)-1,3-dioxoisoindolin-4-ylamino)methyl)-3-fluorobenzyl)piperazin-1-yl)nicotinamide]	> 6.70
O=C1CC[C@H](N2C(=O)c3cccc(NCc4ccc(CN5CC(N6CCOCC6)C5)cc4F)c3C2=O)C(=O)N1 [Cpd 208, (S)-2-(2,6-dioxopiperidin-3-yl)-4-(2-fluoro-4-((3-morpholinoazetidin-1-yl)methyl)benzylamino)isoindoline-1,3-dione]	> 6.70
O=C1CC[C@@H](N2C(=O)c3cccc(NCc4ccc(CN5CC(N6CCOCC6)C5)cc4F)c3C2=O)C(=O)N1 [Cpd 209, (R)-2-(2,6-dioxopiperidin-3-yl)-4-(2-fluoro-4-((3-morpholinoazetidin-1-yl)methyl)benzylamino)isoindoline-1,3-dione]	> 6.70
O=C1CCC(N2C(=O)c3cccc(NCc4ccc(CN5CCC(N6CCOCC6)CC5)cc4)c3C2=O)C(=O)N1 (stereo not drawn) [Cpd 210, 2-(2,6-dioxopiperidin-3-yl)-4-(4-((4-morpholinopiperidin-1-yl)methyl)benzylamino)isoindoline-1,3-dione]	6.30 to 6.70
Cc1cc(CNc2cccc3c2C(=O)N(C2CCC(=O)NC2=O)C3=O)ccc1CN1CCC(N2CCOCC2)CC1 (stereo not drawn) [Cpd 211, 2-(2,6-dioxopiperidin-3-yl)-4-(3-methyl-4-((4-morpholinopiperidin-1-yl)methyl)benzylamino)isoindoline-1,3-dione]	6.30 to 6.70
O=C1CCC(N2C(=O)c3cccc(NCc4ccc(CN5CCC(C6CCOCC6)CC5)cc4)c3C2=O)C(=O)N1 (stereo not drawn) [Cpd 213, 2-(2,6-dioxopiperidin-3-yl)-4-(4-((4-(tetrahydro-2H-pyran-4-yl)piperridin-1-yl)methyl)benzylamino)isoindoline-1,3-dione]	> 6.70
Cc1cc(CNc2cccc3c2C(=O)N(C2CCC(=O)NC2=O)C3=O)ccc1CN1CCC(C2CCOCC2)CC1 (stereo not drawn) [Cpd 214, 2-(2,6-dioxopiperidin-3-yl)-4-(3-methyl-4-((4-(tetrahydro-2H-pyran-4-yl)piperidin-1-yl)methyl)benzylamino)isoindoline-1,3-dione]	> 6.70
O=C1CCC(N2C(=O)c3cccc(NCc4ccc(CN5CCC(C6CCOCC6)CC5)cc4F)c3C2=O)C(=O)N1 (stereo not drawn) [Cpd 215, 2-(2,6-dioxopiperidin-3-yl)-4-(2-fluoro-4-((4-(tetrahydro-2H-pyran-4-yl)piperidin-1-yl)methyl)benzylamino)isoindoline-1,3-dione]	> 6.70
O=C1CCC(N2C(=O)c3cccc(NCc4ccc(CN5CC(N6CCCC6)C5)cc4)c3C2=O)C(=O)N1 (stereo not drawn) [Cpd 216, 2-(2,6-dioxopiperidin-3-yl)-4-(4-((3-(pyrrolidin-1-yl)azetidin-1-yl)methyl)benzylamino)isoindoline-1,3-dione]	> 6.70
Cc1cc(CNc2cccc3c2C(=O)N(C2CCC(=O)NC2=O)C3=O)ccc1CN1CC(N2CCCC2)C1 (stereo not drawn) [Cpd 217, 2-(2,6-dioxopiperidin-3-yl)-4-(3-methyl-4-((3-(pyrrolidin-1-yl)azetidin-1-yl)methyl)benzylamino)isoindoline-1,3-dione]	> 6.70
O=C1CCC(N2C(=O)c3cccc(NCc4ccc(CN5CC(N6CCCC6)C5)cc4F)c3C2=O)C(=O)N1 (stereo not drawn) [Cpd 218, 2-(2,6-dioxopiperidin-3-yl)-4-(2-fluoro-4-((3-(pyrrolidin-1-yl)azetidin-1-yl)methyl)benzylamino)isoindoline-1,3-dione]	> 6.70
O=C1CCC(N2C(=O)c3cccc(NCc4ccc(CN5CC6(CCOCC6)C5)cc4)c3C2=O)C(=O)N1 (stereo not drawn) [Cpd 219, 4-(4-(7-oxa-2-azaspiro[3.5]nonan-2-ylmethyl)benzylamino)-2-(2,6-dioxopiperidin-3-yl)isoindoline-1,3-dione]	> 6.70
Cc1cc(CNc2cccc3c2C(=O)N(C2CCC(=O)NC2=O)C3=O)ccc1CN1CC2(CCOCC2)C1 (stereo not drawn) [Cpd 220, 4-(4-(7-oxa-2-azaspiro[3.5]nonan-2-ylmethyl)-3-methylbenzylamino)-2-(2,6-dioxopiperidin-3-yl)isoindoline-1,3-dione]	> 6.70
O=C1CCC(N2C(=O)c3cccc(NCc4ccc(CN5CC6(CCOCC6)C5)cc4F)c3C2=O)C(=O)N1 (stereo not drawn) [Cpd 221, 4-(4-(7-oxa-2-azaspiro[3.5]nonan-2-ylmethyl)-2-fluorobenzylamino)-2-(2,6-dioxopiperidin-3-yl)isoindoline-1,3-dione]	> 6.70
C[C@@H]1CN(C2CN(Cc3ccc(CNc4cccc5c4C(=O)N(C4CCC(=O)NC4=O)C5=O)c(F)c3)C2)C[C@H](C)O1 (stereo partly drawn) [Cpd 222, 4-(4-((3-((2R,6S)-2,6-dimethylmorpholino)azetidin-1-yl)methyl)-2-fluorobenzylamino)-2-(2,6-dioxopiperidin-3-yl)isoindoline-1,3-dione]	6.30 to 6.70
Cc1cc(CNc2cccc3c2C(=O)N(C2CCC(=O)NC2=O)C3=O)ccc1CN1CC(N2CC3CCC(C2)O3)C1 (stereo not drawn) [Cpd 223, 4-(4-((3-(8-oxa-3-azabicyclo[3.2.1]octan-3-yl)azetidin-1-yl)methyl)-3-methylbenzylamino)-2-(2,6-dioxopiperidin-3-yl)isoindoline-1,3-dione]	> 6.70
O=C1CCC(N2C(=O)c3cccc(NCc4ccc(CN5CC(N6CC7CCC(C6)O7)C5)cc4)c3C2=O)C(=O)N1 (stereo not drawn) [Cpd 224, 4-(4-((3-(8-oxa-3-azabicyclo[3.2.1]octan-3-yl)azetidin-1-yl)methyl)benzylamino)-2-(2,6-dioxopiperidin-3-yl)isoindoline-1,3-dione]	> 6.70
O=C1CCC(N2C(=O)c3cccc(NCc4ccc(CN5CC(N6CC7CCC(C6)O7)C5)cc4F)c3C2=O)C(=O)N1 (stereo not drawn) [Cpd 225, 4-(4-((3-(8-oxa-3-azabicyclo[3.2.1]octan-3-yl)azetidin-1-yl)methyl)-2-fluorobenzylamino)-2-(2,6-dioxopiperidin-3-yl)isoindoline-1,3-dione]	> 6.70
O=C1CCC(N2C(=O)c3cccc(NCc4ccc(CN5CC6(COC6)C5)cc4F)c3C2=O)C(=O)N1 (stereo not drawn) [Cpd 226, 4-(4-(2-oxa-6-azaspiro[3.3]heptan-6-ylmethyl)-2-fluorobenzylamino)-2-(2,6-dioxopiperidin-3-yl)isoindoline-1,3-dione]	6.30 to 6.70
O=C1CCC(N2C(=O)c3cccc(NCc4ccc(CN5CCC6(COC6)C5)cc4F)c3C2=O)C(=O)N1 (stereo not drawn) [Cpd 227, 4-(4-(2-oxa-6-azaspiro[3.4]octan-6-ylmethyl)-2-fluorobenylamino)-2-(2,6-dioxopiperidin-3-yl)isoindoline-1,3-dione]	> 6.70
Cc1cc(CNc2cccc3c2C(=O)N(C2CCC(=O)NC2=O)C3=O)ccc1CN1CC2(COC2)C1 (stereo not drawn) [Cpd 228, 4-(4-(2-oxa-6-aaspiro[3.3]heptan-6-ylmethyl)-3-methylbenzylamino)-2-(2,6-dioxopiperidin-3-yl)isoindoline-1,3-dione]	6.30 to 6.70
Cc1cc(CNc2cccc3c2C(=O)N(C2CCC(=O)NC2=O)C3=O)ccc1CN1CCC2(COC2)C1 (stereo not drawn) [Cpd 229, 4-(4-(2-oxa-6-azaspiro[3.4]octan-6-ylmethyl)-3-methylbenzylamino)-2-(2,6-dioxopiperidin-3-yl)isoindoline-1,3-dione]	6.12 to 6.30
O=C1CCC(N2C(=O)c3cccc(NCc4ccc(CN5CC6(CCCO6)C5)cc4F)c3C2=O)C(=O)N1 (stereo not drawn) [Cpd 230, 4-(4-(5-oxa-2-azaspiro[3.4]octan-2-ylmethyl)-2-fluorobenzylamino)-2-(2,6-dioxopiperidin-3-yl)isoindoline-1,3-dione]	> 6.70
O=C1CCC(N2C(=O)c3cccc(NCc4ccc(CN5CCC6(CCOC6)CC5)cc4F)c3C2=O)C(=O)N1 (stereo not drawn) [Cpd 231, 4-(4-(2-oxa-8-azaspiro[4.5]decan-8-ylmethyl)-2-fluorobenzylamino)-2-(2,6-dioxopiperidin-3-yl)isoindoline-1,3-dione]	> 6.70
Cc1cc(CNc2cccc3c2C(=O)N(C2CCC(=O)NC2=O)C3=O)ccc1CN1CC2(CCCO2)C1 (stereo not drawn) [Cpd 232, 4-(4-(5-oxa-2-azaspiro[3.4]octan-2-ylmethyl)-3-methylbenzylamino)-2-(2,6-dioxopiperidin-3-yl)isoindoline-1,3-dione]	> 6.70
Cc1cc(CNc2cccc3c2C(=O)N(C2CCC(=O)NC2=O)C3=O)ccc1CN1CCC2(CCOC2)CC1 (stereo not drawn) [Cpd 233, 4-(4-(2-oxa-8-azaspiro[4.5]decan-8-ylmethyl)-3-methylbenzylamino)-2-(2,6-dioxopiperidin-3-yl)isoindoline-1,3-dione]	> 6.70
O=C1CCC(N2C(=O)c3cccc(NCc4ccc(CN5CCC6(CCOCC6)CC5)cc4F)c3C2=O)C(=O)N1 (stereo not drawn) [Cpd 234, 4-(4-(3-oxa-9-azaspiro[5.5]undecan-9-ylmethyl)-2-fluorobenzylamino)-2-(2,6-dioxopiperidin-3-yl)isoindoline-1,3-dione]	> 6.70

From patent publication US11358952B2, “Substituted 4-aminoisoindoline-1,3-dione compounds, compositions thereof, and methods of treatment therewith” (Celgene Corporation, priority 2018, dated 2022)
